Measurements: publication PMC3646888 (PLoS ONE, 2013)
“Also recorded” adds a separate entry of the source.

Tests used:
[1] = target: T1, CYP19A1h (Homo sapiens, UniProt P11511); assay: Fluorescence-based CYP assay, recombinant CYP19A1h, substrate DBF; assay type: in vitro ADME
T1 sequence (P11511 1-503): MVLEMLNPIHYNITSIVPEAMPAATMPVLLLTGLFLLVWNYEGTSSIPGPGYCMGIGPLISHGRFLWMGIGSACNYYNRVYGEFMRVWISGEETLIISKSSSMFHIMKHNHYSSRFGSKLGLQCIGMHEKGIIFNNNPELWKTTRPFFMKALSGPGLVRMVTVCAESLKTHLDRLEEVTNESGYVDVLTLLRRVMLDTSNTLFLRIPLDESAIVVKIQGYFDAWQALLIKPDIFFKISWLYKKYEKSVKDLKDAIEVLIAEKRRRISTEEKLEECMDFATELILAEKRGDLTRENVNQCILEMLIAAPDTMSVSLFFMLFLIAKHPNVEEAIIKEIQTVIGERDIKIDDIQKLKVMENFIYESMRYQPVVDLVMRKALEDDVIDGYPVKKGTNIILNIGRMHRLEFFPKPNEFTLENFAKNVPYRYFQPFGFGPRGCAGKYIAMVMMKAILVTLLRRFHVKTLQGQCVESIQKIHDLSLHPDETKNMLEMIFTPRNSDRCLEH
Protocol: (§1) These assays were performed by methods similar to those described by VanAlstine and Hough, Stresser et al., Wulff et al., Henderson et al., and Crespi et al., with minor modifications. All incubations were performed in a final volume of 200 µL of 50 mM potassium phosphate buffer at pH 7.4 containing 1% acetonitrile. CYP inhibitor studies were performed according to the parameters of Table 1. Substrate concentrations were chosen to be near known Km values. As described in the references cited, two different NADPH regenerating systems were used depending on the substrates used (Table 1). […] Samples were pre-incubated at 37°C for the designated times, and the reactions were initiated with the addition of a substrate and enzyme mixtures (Table 1). […] For the assays utilizing the “high” regenerating system, enzyme reactions were terminated at the designated time by the addition of 75 µL of 2N NaOH, followed by a 2 h post-incubation at 37°C. Product formation was then measured at the designated wavelengths (Table 1). For the “low” regenerating system assays, blanks and standards were prepared in 0.1 mL buffer without the regenerating system. For the “high” regenerating system assays, blanks and standards containing 0.1 mL of buffer received 75 µL of 2N NaOH following pre-incubation.

[2] = target: T2, CYP3A4 (Homo sapiens, UniProt P08684); assay: Fluorescence-based CYP3A4 assay with DBF as substrate; assay type: in vitro ADME
Protocol: as §1

[3] = target: T2, CYP3A4; assay: CYP3A4 assay with LVS as substrate (LC-MS/MS); assay type: in vitro ADME; conditions: for IC50 at 20 min: human; for IC50: substrate LVS 10 µM
Protocol: CYP3A4-containing Supersomes (2 pmol) were incubated with LVS (10 µM) in a 200 µl reaction mixture containing 0.1 M potassium phosphate buffer, pH 7.4, 1.0 mM NADPH, and 3 mM MgCl2 for 20 min at 37°C. The reaction was initiated by the addition of NADPH, and terminated by the addition of 400 µL of acetonitrile to the reaction mixture. Samples were extracted and analyzed for the two major LVS metabolites 6′β-hydroxy LVS and 6′-exomethylene LVS by LC-MS-MS exactly as described.

[4] = target: T2, CYP3A4; design: method as in PMID 10884437; conditions: 10 µM; cited from earlier work

T2 sequence (P08684 whole entry): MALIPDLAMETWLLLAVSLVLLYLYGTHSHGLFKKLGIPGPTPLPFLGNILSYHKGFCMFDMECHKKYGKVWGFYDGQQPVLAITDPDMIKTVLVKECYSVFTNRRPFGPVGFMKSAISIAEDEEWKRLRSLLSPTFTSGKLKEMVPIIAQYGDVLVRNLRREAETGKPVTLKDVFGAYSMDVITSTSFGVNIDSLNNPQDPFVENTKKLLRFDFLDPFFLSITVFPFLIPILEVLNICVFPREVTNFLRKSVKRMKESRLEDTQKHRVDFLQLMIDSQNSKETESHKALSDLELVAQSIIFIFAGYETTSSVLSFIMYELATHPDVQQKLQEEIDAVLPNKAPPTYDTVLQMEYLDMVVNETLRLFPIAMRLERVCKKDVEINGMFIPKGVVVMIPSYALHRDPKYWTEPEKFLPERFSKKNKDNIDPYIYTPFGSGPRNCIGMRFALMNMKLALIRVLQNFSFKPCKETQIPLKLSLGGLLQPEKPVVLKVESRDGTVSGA

SMILES: Clc1ccccc1C(c1ccccc1)(c1ccccc1)n1cccn1 [TRAM-34, 1-[(2-chlorophenyl)diphenylmethyl]-1H-pyrazole]
- IC50 [1]: > 80000 nM
- Inhibition of CYP19A1h (in words) ([1]; up to 80 µM): little to no inhibition; also recorded: no inhibitory effects
- IC50 [2]: 3600 nM
- IC50 at 20 min ([3]; pH 7.4, IC50, formation of 6′-exomethylene LVS by CYP3A4, substrate LVS 10 µM): 640 nM
- IC50 at 20 min ([3]; pH 7.4, IC50, formation of 6′β-hydroxy LVS by CYP3A4, substrate LVS 10 µM): 920 nM
- IC50 ([3]; read-out: IC50, formation of 6′-exomethylene LVS by CYP3A4): ~1000 nM
- IC50 ([3]; read-out: IC50, formation of 6′β-hydroxy LVS by CYP3A4): ~1000 nM
- Inhibition of CYP3A4 with BFC as substrate (in words) [4]: did not inhibit
